# Target: T1, Human neutrophil elastase (Homo sapiens, UniProt P08246)
# T1 construct: purchased Calbiochem 324681
# T1 sequence (P08246 30-267): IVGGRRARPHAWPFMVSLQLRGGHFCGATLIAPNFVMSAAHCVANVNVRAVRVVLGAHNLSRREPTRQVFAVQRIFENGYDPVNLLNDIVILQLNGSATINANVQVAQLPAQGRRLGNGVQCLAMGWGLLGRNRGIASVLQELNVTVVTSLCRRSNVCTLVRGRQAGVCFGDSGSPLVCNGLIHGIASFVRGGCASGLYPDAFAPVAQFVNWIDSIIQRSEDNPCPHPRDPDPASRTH
# Assay: Human Neutrophil Elastase Assay
# Type: biochemical
# Conditions: Neutrophil Elastase assay; substrate MeOSuc-Ala-Ala-Pro-Val-AMC 250 μM; 15 min preincubation, 60 min incubation at room temperature; pH 7.5
# Protocol: Human Neutrophil Elastase Assay
# All other materials were of the highest grade commercially available.
# The following buffers were used: Compound buffer: 100 mM Tris, 500 mM NaCl, adjusted to pH 7.5; Assay buffer: 100 mM Tris, 500 mM NaCl, adjusted to pH 7.5, containing 0.01% BSA.
# Assay conditions: Test compounds were prediluted in DMSO and subsequently in compound buffer (5% DMSO final). […] After inactivation of the enzyme, fluorescence intensities were measured at 380 nm excitation and 460 nm emission wavelengths.
# Each plate contains wells with a high value control (DMSO+enzyme+substrate) and wells with a low value control (DMSO+inactivated enzyme+substrate). […] Means of low values were taken as 0%, means of high values as 100%.
row,Compound,IC50
1,Cc1c(-c2cccc(C(F)(F)F)c2)c(=O)c(C(=O)NCC2CCCO2)cn1Cc1ccc(C#N)cc1 (stereo not drawn) [Example 1.47],22 nM
2,Cc1c(-c2cccc(C(F)(F)F)c2)c(=O)c(C(=O)NCc2ccccn2)cn1Cc1ccc(C#N)cc1 [Example 1.48],4.1 nM
3,Cc1c(-c2cccc(C(F)(F)F)c2)c(=O)c(C(=O)NCCN2CCOCC2)cn1Cc1ccc(C#N)cc1 [Example 1.49],10.4 nM
4,Cc1c(-c2cccc(C(F)(F)F)c2)c(=O)c(C(=O)NCc2ccncc2)cn1Cc1ccc(C#N)cc1 [Example 1.50],1.4 nM
5,CCNC(=O)c1cn(Cc2ccc(C#N)cc2)c(C)c(-c2cccc(C(F)(F)F)c2)c1=O [Example 1.51],10.7 nM
6,Cc1c(-c2cccc(C(F)(F)F)c2)c(=O)c(C(N)=O)cn1Cc1ccc(C#N)cc1 [Example 1.52],9.6 nM
7,Cc1c(-c2cccc(C(F)(F)F)c2)c(=O)c(C(=O)N[C@H]2CCC(=O)NC2)cn1Cc1ccc(C#N)cc1 [Example 1.53],9 nM
8,Cc1c(-c2cccc(C(F)(F)F)c2)c(=O)c(C(=O)NCC(=O)N2CCCC2)cn1Cc1ccc(C#N)cc1 [Example 1.54],41.5 nM
9,Cc1c(-c2cccc(C(F)(F)F)c2)c(=O)c(C(=O)NC2CCCNC2=O)cn1Cc1ccc(C#N)cc1 (stereo not drawn) [Example 1.55],4.9 nM
10,COc1ccc(CNC(=O)c2cn(Cc3ccc(C#N)cc3)c(C)c(-c3cccc(C(F)(F)F)c3)c2=O)cn1 [Example 1.56],4.6 nM
11,Cc1c(-c2cccc(C(F)(F)F)c2)c(=O)c(C(=O)NC2CCN(C)C2=O)cn1Cc1ccc(C#N)cc1 (stereo not drawn) [Example 1.57],6.8 nM
12,Cc1c(-c2cccc(C(F)(F)F)c2)c(=O)c(C(=O)N[C@H]2CCNC2=O)cn1Cc1ccc(C#N)cc1 [Example 1.58],8.1 nM
13,Cc1c(-c2cccc(C(F)(F)F)c2)c(=O)c(C(=O)N[C@@H]2CCNC2=O)cn1Cc1ccc(C#N)cc1 [Example 1.59],10.5 nM
14,Cc1nc(CNC(=O)c2cn(Cc3ccc(C#N)cc3)c(C)c(-c3cccc(C(F)(F)F)c3)c2=O)no1 [Example 1.60],13.3 nM
15,Cc1c(-c2cccc(C(F)(F)F)c2)c(=O)c(C(=O)NC2CC(=O)N(C)C2)cn1Cc1ccc(C#N)cc1 (stereo not drawn) [Example 1.61],11.4 nM
16,Cc1c(-c2cccc(C(F)(F)F)c2)c(=O)c(C(=O)NC2CCC(=O)N(C)C2)cn1Cc1ccc(C#N)cc1 (stereo not drawn) [Example 1.62],10.4 nM
17,COC(=O)CNC(=O)c1cn(Cc2ccc(C#N)cc2)c(C)c(-c2cccc(C(F)(F)F)c2)c1=O [Example 1.63],22.5 nM
18,Cc1c(-c2cccc(C(F)(F)F)c2)c(=O)c(C(=O)NC2CCS(=O)(=O)C2)cn1Cc1ccc(C#N)cc1 (stereo not drawn) [Example 1.64],17.2 nM
19,Cc1c(-c2cccc(C(F)(F)F)c2)c(=O)c(C(=O)NCC(=O)N(C)C)cn1Cc1ccc(C#N)cc1 [Example 1.65],38.5 nM

row,Compound,IC50
1,Cc1c(-c2cccc(C(F)(F)F)c2)c(=O)c(C(=O)NCCS(C)(=O)=O)cn1Cc1ccc(C#N)cc1 [Example 1.66],6.2 nM
2,Cc1noc(CNC(=O)c2cn(Cc3ccc(C#N)cc3)c(C)c(-c3cccc(C(F)(F)F)c3)c2=O)n1 [Example 1.67],6.5 nM
3,"Cc1c(-c2cccc(C(F)(F)F)c2)c(=O)c(C(=O)NCc2ccc(S(C)(=O)=O)cc2)cn1Cc1ccccc1 [Example 2.1, 1-Benzyl-6-methyl-4-oxo-5-(3-trifluoromethyl-phenyl)-1,4-dihydro-pyridine-3-carboxylic acid 4-methanesulfonyl-benzylamide]",55.3 nM
4,Cc1c(-c2cccc(C(F)(F)F)c2)c(=O)c(C(=O)NCc2ccc(S(C)(=O)=O)cc2)cn1Cc1ccc(F)cc1 [Example 2.2],1.9 nM
5,Cc1c(-c2cccc(C(F)(F)F)c2)c(=O)c(C(=O)NCc2ccc(S(C)(=O)=O)cc2)cn1Cc1ccc(C#N)cn1 [Example 2.3],< 1 nM
6,Cc1c(-c2cccc(C(F)(F)F)c2)c(=O)c(C(=O)NCc2ccc(S(C)(=O)=O)cc2)cn1Cc1ccc(C#N)nc1 [Example 2.4],1.4 nM
7,Cc1c(-c2cccc(C(F)(F)F)c2)c(=O)c(C(=O)NCc2ccc(S(C)(=O)=O)cc2)cn1[C@H](C)c1ccc(C#N)cc1 [Example 2.5A],< 1 nM
8,COc1cc(C#N)ccc1Cn1cc(C(=O)NCc2ccc(S(C)(=O)=O)cc2)c(=O)c(-c2cccc(C(F)(F)F)c2)c1C [Example 2.6],1.6 nM
9,Cc1c(-c2cccc(C(F)(F)F)c2)c(=O)c(C(=O)NCc2ccc(S(C)(=O)=O)cc2)cn1Cc1ccc(Cl)cc1 [Example 2.7],6.9 nM
10,Cc1c(-c2cccc(C(F)(F)F)c2)c(=O)c(C(=O)NCc2ccc(S(C)(=O)=O)cc2)cn1Cc1ccc(C#N)cc1F [Example 2.8],< 1 nM
11,Cc1c(-c2cccc(C(F)(F)F)c2)c(=O)c(C(=O)NCc2ccc(S(C)(=O)=O)cc2)cn1Cc1ccc(C#N)c(F)c1 [Example 2.9],< 1 nM
12,Cc1c(-c2cccc(C(F)(F)F)c2)c(=O)c(C(=O)NCc2ccc(S(C)(=O)=O)cc2)cn1Cc1cccc(C#N)c1 [Example 2.10],83.8 nM
13,Cc1c(-c2cccc(C(F)(F)F)c2)c(=O)c(C(=O)NCc2ccc(S(C)(=O)=O)cc2)cn1Cc1ccncc1 [Example 2.11],38.9 nM
14,Cc1c(-c2cccc(C(F)(F)F)c2)c(=O)c(C(=O)NCc2ccc(S(C)(=O)=O)cc2)cn1Cc1ccc(C#N)cc1 [Example 2.12],< 1 nM
15,CNC(=O)c1cn(Cc2ccc(C#N)nc2)c(C)c(-c2cccc(C(F)(F)F)c2)c1=O [Example 3.2],53.7 nM
16,CNC(=O)c1cn(Cc2ccc(F)cc2)c(C)c(-c2cccc(C(F)(F)F)c2)c1=O [Example 3.3],51 nM
17,CNC(=O)c1cn(Cc2ccc(Cl)cc2)c(C)c(-c2cccc(C(F)(F)F)c2)c1=O [Example 3.4],29.1 nM
18,CNC(=O)c1cn(Cc2ccc(C#N)c(F)c2)c(C)c(-c2cccc(C(F)(F)F)c2)c1=O [Example 3.5],19.3 nM
19,CNC(=O)c1cn(Cc2ccc(C#N)cc2F)c(C)c(-c2cccc(C(F)(F)F)c2)c1=O [Example 3.6],20.3 nM

row,Compound,IC50
1,CNC(=O)c1cn(Cc2ccc(C#N)cc2OC)c(C)c(-c2cccc(C(F)(F)F)c2)c1=O [Example 3.7],26.4 nM
2,"Cc1c(-c2cccc(C(F)(F)F)c2)c(=O)c(C(=O)NCc2ccc(S(C)(=O)=O)cn2)cn1Cc1ccc(C#N)cc1 [Example 4.1, 1-(4-cyano-benzyl)-6-methyl-4-oxo-5-(3-trifluoromethyl-phenyl)-1,4-dihydro-pyridine-3-carboxylic acid (5-methanesulfonyl-pyridin-2-ylmethyl)-amide]",< 1 nM
3,Cc1c(-c2cccc(C(F)(F)F)c2)c(=O)c(C(=O)NCc2ccc(S(C)(=O)=O)cn2)cn1Cc1ccc(Cl)cc1 [Example 4.2],2.1 nM
4,Cc1c(-c2cccc(C(F)(F)F)c2)c(=O)c(C(=O)NCc2ccc(S(C)(=O)=O)cn2)cn1Cc1ccncc1 [Example 4.3],58 nM
5,Cc1c(-c2cccc(C(F)(F)F)c2)c(=O)c(C(=O)NCc2ccc(S(C)(=O)=O)cn2)cn1Cc1cccc(C#N)c1 [Example 4.4],63.8 nM
6,Cc1c(-c2cccc(C(F)(F)F)c2)c(=O)c(C(=O)NCc2ccc(S(C)(=O)=O)cn2)cn1Cc1ccc(C#N)c(F)c1 [Example 4.5],1 nM
7,COc1cc(C#N)ccc1Cn1cc(C(=O)NCc2ccc(S(C)(=O)=O)cn2)c(=O)c(-c2cccc(C(F)(F)F)c2)c1C [Example 4.7],< 1 nM
8,Cc1c(-c2cccc(C(F)(F)F)c2)c(=O)c(C(=O)NCc2ccc(S(C)(=O)=O)cn2)cn1Cc1ccc(C#N)nc1 [Example 4.8],1.4 nM
9,Cc1c(-c2cccc(C(F)(F)F)c2)c(=O)c(C(=O)NCc2ccc(S(C)(=O)=O)cn2)cn1Cc1ccc(C#N)cc1F [Example 4.9],< 1 nM
10,Cc1c(-c2cccc(C(F)(F)F)c2)c(=O)c(C(=O)NCc2ccc(S(C)(=O)=O)cn2)cn1C(C)c1ccc(C#N)cc1 (stereo not drawn) [Example 4.10],< 1 nM
11,Cc1c(-c2ccnc(C(F)(F)F)c2)c(=O)c(C(=O)NCc2ccc(S(C)(=O)=O)cc2)cn1Cc1ccc(C#N)cn1 [Example 5.1],2.8 nM
12,Cc1c(-c2ccnc(C(F)(F)F)c2)c(=O)c(C(=O)NCc2ccc(S(C)(=O)=O)cc2)cn1Cc1ccc(C#N)c(F)c1 [Example 5.2],1.2 nM
13,Cc1c(-c2ccnc(C(F)(F)F)c2)c(=O)c(C(=O)NCc2ccc(S(C)(=O)=O)cc2)cn1Cc1ccc(C#N)cc1F [Example 5.3],1.4 nM
14,"Cc1c(-c2ccccc2)c(=O)c(C(=O)NCc2ccc(S(C)(=O)=O)cc2)cn1Cc1ccc(C#N)cc1 [Example 6.1, 1-(4-Cyano-benzyl)-6-methyl-4-oxo-5-phenyl-1,4-dihydro-pyridine-3-carboxylic acid 4-methanesulfonyl-benzylamide]",44.5 nM
15,Cc1cccc(-c2c(C)n(Cc3ccc(C#N)cc3)cc(C(=O)NCc3ccc(S(C)(=O)=O)cc3)c2=O)c1 [Example 6.2],1.5 nM
16,Cc1cc(-c2c(C)n(Cc3ccc(C#N)cc3)cc(C(=O)NCc3ccc(S(C)(=O)=O)cc3)c2=O)ccn1 [Example 6.3],9.1 nM
17,Cc1cncc(-c2c(C)n(Cc3ccc(C#N)cc3)cc(C(=O)NCc3ccc(S(C)(=O)=O)cc3)c2=O)c1 [Example 6.4],19.3 nM
18,Cc1c(-c2cccc(F)c2)c(=O)c(C(=O)NCc2ccc(S(C)(=O)=O)cc2)cn1Cc1ccc(C#N)cc1 [Example 6.5],9.6 nM

# Same assay, conditions: eutomer versus distomer of the racemic example
row,Compound,"neutrophil elastase inhibitory potency, one enantiomer compared with the other"
1,Cc1c(-c2cccc(C(F)(F)F)c2)c(=O)c(C(=O)NCc2ccc(S(C)(=O)=O)cc2)cn1[C@H](C)c1ccc(C#N)cc1 [Example 2.5A],much more active
